From patent US11319315B2, “Cyclohexyl acid triazole azoles as LPA antagonists” (BRISTOL-MYERS SQUIBB COMPANY, priority 2017, dated 2022) come the findings set out here.

Where a name gives a salt, the structure may show the parent alone.

T1 sequence (Q92633 whole entry): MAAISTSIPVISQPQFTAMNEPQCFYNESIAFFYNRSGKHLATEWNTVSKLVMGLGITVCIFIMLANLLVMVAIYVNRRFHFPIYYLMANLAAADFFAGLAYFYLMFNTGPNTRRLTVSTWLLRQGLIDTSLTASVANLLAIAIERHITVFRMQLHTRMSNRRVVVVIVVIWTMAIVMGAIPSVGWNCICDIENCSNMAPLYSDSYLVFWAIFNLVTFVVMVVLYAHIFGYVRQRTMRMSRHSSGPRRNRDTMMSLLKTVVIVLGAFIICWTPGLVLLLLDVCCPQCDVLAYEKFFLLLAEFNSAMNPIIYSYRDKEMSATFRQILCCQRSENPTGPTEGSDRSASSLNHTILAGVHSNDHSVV

This assay has as its target T1, human LPA1 (Homo sapiens, UniProt Q92633).
T1 construct: expressed in transfected cells; host or cells: Chinese hamster ovary (CHO) cells
The experiment in a line: LPA1 functional antagonist assay (LPA-induced calcium flux in CHO cells overexpressing human LPA1). To be noted: inhibition of calcium flux induced by 10 nM LPA, CHO cells overexpressing human LPA1; read-out: hLPA1 IC50. It is filed as cell-based. As to the method: The effectiveness of compounds of the present invention as LPA1 inhibitors can be determined in an LPA1 functional antagonist assay as follows:
Chinese hamster ovary cells overexpressing human LPA1 were plated overnight (15,000 cells/well) in poly-D-lysine coated 384-well microplates (Greiner bio-one, Cat #781946) in DMEM/F12 medium (Gibco, Cat #11039). Following overnight culture, cells were loaded with calcium indicator dye (AAT Bioquest Inc, Cat #34601) for 30 minutes at 37° C. The cells were then equilibrated to room temperature for 30 minutes before the assay. Test compounds solubilized in DMSO were transferred to 384 well non-binding surface plates (Corning, Cat #3575) using the Labcyte Echo acoustic dispense and diluted with assay buffer [IX HBSS with calcium/magnesium (Gibco Cat #14025-092), 20 mM HEPES (Gibco Cat #15630-080) and 0.1% fatty acid free BSA (Sigma Cat #A9205)] to a final concentration of 0.5% DMSO. Diluted compounds were added to the cells by FDSS6000 (Hamamatsu) at final concentrations ranging from 0.08 nM to 5 μM. and were then incubated for 20 min at room temperature at which time LPA (Avanti Polar Lipids Cat #857130C) was added at final concentrations of 10 nM to stimulate the cells. The compound IC50 value was defined as the concentration of test compound which inhibited 50% of the calcium flux induced by LPA alone. IC50 values were determined by fitting data to a 4-parameter logistic equation (GraphPad Prism, San Diego Calif.).
On the technique in general: A change in cytosolic calcium serves as a functional read-out for many receptors and channels.
As for `Cc1nc(-c2nnn(C)c2CNc2nnc(C(C)C)o2)ccc1O[C@H]1CCC[C@H](C(=O)O)C1` [Example 42, (1S,3S)-3-((6-(5-(((5-Isopropyl-1,3,4-oxadiazol-2-yl)amino)methyl)-1-methyl-1H-1,2,3-triazol-4-yl)-2-methylpyridin-3-yl)oxy)cyclohexane-1-carboxylic acid, 2 TFA salt], the IC50 – broadly, the midpoint of a concentration-inhibition curve – was found to be 1410 nM.
For `CCCCc1noc(NCc2c(-c3ccc(O[C@H]4CCC[C@H](C(=O)O)C4)c(C)n3)nnn2C)n1` [Example 43, (1S,3S)-3-((6-(5-(((3-Butyl-1,2,4-oxadiazol-5-yl)amino)methyl)-1-methyl-1H-1,2,3-triazol-4-yl)-2-methylpyridin-3-yl)oxy)cyclohexane-1-carboxylic acid, bis TFA salt] the value was 76 nM; for `Cc1nc(-c2nnn(C)c2CNc2nc(C3CCC3)no2)ccc1O[C@H]1CCC[C@H](C(=O)O)C1` [Example 44, (1S,3S)-3-((6-(5-(((3-Cyclobutyl-1,2,4-oxadiazol-5-yl)amino)methyl)-1-methyl-1H-1,2,3-triazol-4-yl)-2-methylpyridin-3-yl)oxy)cyclohexane-1-carboxylic acid, 2 TFA salt], 105 nM; for `Cc1nc(-c2nnn(C)c2Cn2nc(C3CCCC3)oc2=N)ccc1O[C@H]1CCC[C@H](C(=O)O)C1` [Example 45], 228 nM.
In the case of `Cc1nc(-c2nnn(C)c2Cn2nc(C3CCC3)oc2=N)ccc1O[C@H]1CCC[C@H](C(=O)O)C1` [Example 46], the concentration for half-maximal inhibition (IC50) came out at 137 nM.
`Cc1nc(-c2nnn(C)c2CNc2nnc(C(F)(F)F)o2)ccc1O[C@H]1CCC[C@H](C(=O)O)C1` [Example 47]: the IC50 was 595 nM.
In the case of `Cc1nc(-c2nnn(C)c2CNc2nnc(C3CCCC3)o2)ccc1O[C@H]1CCC[C@H](C(=O)O)C1` [Example 48] it was 209 nM.
Turning to `Cc1nc(-c2nnn(C)c2CNc2nnc(-c3ccccc3)o2)ccc1O[C@H]1CCC[C@H](C(=O)O)C1` [Example 49], the IC50 was found to be 180 nM.
For `Cc1nc(-c2nnn(C)c2CNc2nnc(Cc3ccccc3)o2)ccc1O[C@H]1CCC[C@H](C(=O)O)C1` [Example 50] the value was 96 nM; for `Cc1nc(-c2nnn(C)c2CNc2nnc(C3CCC3)o2)ccc1O[C@H]1CCC[C@H](C(=O)O)C1` [Example 51], 59 nM.
Take `CCCc1nnc(NCc2c(-c3ccc(O[C@H]4CCC[C@H](C(=O)O)C4)c(C)n3)nnn2C)o1` [Example 52]: the IC50 was found to be 396 nM.
For the compound `CCCCc1nnc(NCc2c(-c3ccc(O[C@H]4CCC[C@H](C(=O)O)C4)c(C)n3)nnn2C)o1` [Example 53], the IC50 turned out to be 297 nM.
Regarding `Cc1nc(-c2nnn(C)c2CNc2nnc(CC(C)C)o2)ccc1O[C@H]1CCC[C@H](C(=O)O)C1` [Example 54], the IC50 stood at 191 nM.
As for `Cc1nc(-c2nnn(C)c2CNc2nnc(CCC(C)C)o2)ccc1O[C@H]1CCC[C@H](C(=O)O)C1` [Example 55], the IC50 amounted to 45 nM.
On to `Cc1nc(-c2nnn(C)c2CNc2nnc(CC3CC3)o2)ccc1O[C@H]1CCC[C@H](C(=O)O)C1` [Example 56], for which the IC50 was found to be 136 nM.
In the case of `Cc1nc(-c2nnn(C)c2CNc2nnc(C3CCCCC3)o2)ccc1O[C@H]1CCC[C@H](C(=O)O)C1` [Example 57] it was 204 nM; in that of `Cc1nc(-c2nnn(C)c2CNc2nc(C3CC3)no2)ccc1O[C@H]1CCC[C@H](C(=O)O)C1` [Example 58], 316 nM; in that of `Cc1nc(-c2nnn(C)c2CNc2nc(C(C)C)no2)ccc1O[C@H]1CCC[C@H](C(=O)O)C1` [Example 59], 495 nM.
As to `Cc1nc(-c2nnn(C)c2CNc2nc(C(C)(C)C)no2)ccc1O[C@H]1CCC[C@H](C(=O)O)C1` [Example 60], the IC50 amounted to 478 nM.
Regarding `Cc1nc(-c2nnn(C)c2CNc2nc(-c3ccccc3)no2)ccc1O[C@H]1CCC[C@H](C(=O)O)C1` [Example 61], the IC50 was 26 nM.
For `Cc1nc(-c2nnn(C)c2CNc2nc(C3CCCC3)no2)ccc1O[C@H]1CCC[C@H](C(=O)O)C1` [Example 62], the IC50 came to 43 nM.
In the case of `Cc1nc(-c2nnn(C)c2CNc2nc(Cc3ccccc3)no2)ccc1O[C@H]1CCC[C@H](C(=O)O)C1` [Example 63] it was 38 nM; in that of `Cc1nc(-c2nnn(C)c2CNc2nc(CC3CC3)no2)ccc1O[C@H]1CCC[C@H](C(=O)O)C1` [Example 64], 105 nM; in that of `Cc1nc(-c2nnn(C)c2CNc2noc(-c3ccccc3)n2)ccc1O[C@H]1CCC[C@H](C(=O)O)C1` [Example 65], 23 nM.
`CCCCc1nc(NCc2c(-c3ccc(O[C@H]4CCC[C@H](C(=O)O)C4)c(C)n3)nnn2C)no1` [Example 66]: the IC50 was determined as 15 nM.
For `Cc1nc(-c2nnn(C)c2CNc2noc(Cc3ccccc3)n2)ccc1O[C@H]1CCC[C@H](C(=O)O)C1` [Example 67], the IC50 was determined as 14 nM.
For `CCCc1nc(NCc2c(-c3ccc(O[C@H]4CCC[C@H](C(=O)O)C4)c(C)n3)nnn2C)no1` [Example 68] the value was 42 nM; for `Cc1nc(-c2nnn(C)c2CNc2noc(CCC(C)C)n2)ccc1O[C@H]1CCC[C@H](C(=O)O)C1` [Example 69], 15 nM; for `Cc1nc(-c2nnn(C)c2CNc2noc(CC(C)C)n2)ccc1O[C@H]1CCC[C@H](C(=O)O)C1` [Example 71], 33 nM.
As to `Cc1nc(-c2nnn(C)c2CNc2noc(CC3CCC3)n2)ccc1O[C@H]1CCC[C@H](C(=O)O)C1` [Example 72], the IC50 came to 4 nM.
In the case of `Cc1nc(-c2nnn(C)c2Cc2nnc(Cc3ccccc3)o2)ccc1O[C@H]1CCC[C@H](C(=O)O)C1` [Example 73, (1 S,3 S)-3-((6-(5-((5-benzyl-1,3,4-oxadiazol-2-yl)methyl)-1-methyl-1H-1,2,3-triazol-4-yl)-2-methylpyridin-3-yl)oxy)cyclohexane-1-carboxylic acid] it was 55 nM; in that of `CCCCc1nnc(Cc2c(-c3ccc(O[C@H]4CCC[C@H](C(=O)O)C4)c(C)n3)nnn2C)o1` [Example 74], 227 nM; in that of `Cc1nc(-c2nnn(C)c2Cc2nnc(C3CCCC3)o2)ccc1O[C@H]1CCC[C@H](C(=O)O)C1` [Example 75], 289 nM.
For `Cc1nc(-c2nnn(C)c2Cc2nnc(-c3ccccc3)o2)ccc1O[C@H]1CCC[C@H](C(=O)O)C1` [Example 76] the value was 290 nM.
For `Cc1nc(-c2nnn(C)c2Cc2nnc(Cc3ccc(F)cc3)o2)ccc1O[C@H]1CCC[C@H](C(=O)O)C1` [Example 77] the value was 260 nM.
`Cc1nc(-c2nnn(C)c2C(O)c2cn(Cc3ccccc3)nn2)ccc1O[C@H]1CCC[C@H](C(=O)O)C1` (stereo partly drawn) [Example 78, (1 S,3 S)-3-((6-(5-((1-benzyl-1H-1,2,3-triazol-4-yl)(hydroxy)methyl)-1-methyl-1H-1,2,3-triazol-4-yl)-2-methylpyridin-3-yl)oxy)cyclohexane-1-carboxylic acid]: the IC50 stood at 88 nM.
For `CCCCc1cn(Cc2c(-c3ccc(O[C@H]4CCC[C@H](C(=O)O)C4)c(C)n3)nnn2C)nn1` [Example 79, (1 S,3 S)-3-((6-(5-((4-butyl-1H-1,2,3-triazol-1-yl)methyl)-1-methyl-1H-1,2,3-triazol-4-yl)-2-methylpyridin-3-yl)oxy)cyclohexane-1-carboxylic acid] the value was 44 nM.
On to `Cc1nc(-c2nnn(C)c2Cn2cc(Cc3ccccc3)cn2)ccc1O[C@H]1CCC[C@H](C(=O)O)C1` [Example 80, (1 S,3 S)-3-((6-(5-((4-benzyl-1H-pyrazol-1-yl)methyl)-1-methyl-1H-1,2,3-triazol-4-yl)-2-methylpyridin-3-yl)oxy)cyclohexane-1-carboxylic acid], for which the half-inhibitory concentration (IC50) was determined as 15 nM.
In the case of `Cc1nc(-c2nnn(C)c2Cn2cc(Cc3ccccc3)nn2)ccc1O[C@H]1CCC[C@H](C(=O)O)C1` [Example 81] it was 37 nM; in that of `Cc1nc(-c2nnn(C)c2Cn2cc(C(C)C)nn2)ccc1O[C@H]1CCC[C@H](C(=O)O)C1` [Example 82], 821 nM; in that of `Cc1nc(-c2nnn(C)c2Cn2cc(COc3ccccc3)nn2)ccc1O[C@H]1CCC[C@H](C(=O)O)C1` [Example 83], 135 nM.
In the case of `Cc1nc(-c2nnn(C)c2Cn2nncc2COc2ccccc2)ccc1O[C@H]1CCC[C@H](C(=O)O)C1` [Example 84], the IC50 came to 172 nM.
In the case of `Cc1nc(-c2nnn(C)c2Cn2cc(C(=O)c3ccccc3)nn2)ccc1O[C@H]1CCC[C@H](C(=O)O)C1` [Example 85] it was 241 nM; in that of `CCCc1cn(Cc2c(-c3ccc(O[C@H]4CCC[C@H](C(=O)O)C4)c(C)n3)nnn2C)nn1` [Example 86], 187 nM; in that of `Cc1nc(-c2nnn(C)c2Cn2cc(C(O)c3ccccc3)nn2)ccc1O[C@H]1CCC[C@H](C(=O)O)C1` (stereo partly drawn) [Example 87], 363 nM.
In the case of `Cc1nc(-c2nnn(C)c2Cn2cc(COC(C)(C)C)nn2)ccc1O[C@H]1CCC[C@H](C(=O)O)C1` [Example 88] it was 2930 nM.
Consider `Cc1nc(-c2nnn(C)c2Cn2cc(C3(O)CCCCC3)nn2)ccc1O[C@H]1CCC[C@H](C(=O)O)C1` [Example 89], for which the IC50 stood at 3270 nM.
For `CCCCc1cn(Cc2c(-c3ccc(O[C@H]4CCC[C@H](C(=O)O)C4)c(C#N)n3)nnn2C)nn1` [Example 90], the IC50 is 78 nM.
